Where a SMILES comes first, the peptide text is derived from it. [ ]: non-standard residue; d: D form. The star is where a group is joined. NH(TEMPO-4-yl) = CC1(C)CC(N*)CC(C)(C)N1[O]; Orn = NCCC[C@H](N)C(=O)O; Cbz = O=C(OCc1ccccc1)*; Boc = CC(C)(C)OC(=O)*; X1 = CC1CCN=C(N*)S1
Legend:
[1] = system: mouse embryonic cells; assay: Intracellular superoxide generation (DHE flow cytometry) in ActD-treated MECs; format: cell-based; details: 10 μM pretreatment, ActD 100 ng/mL
Description: Determination of intracellular superoxide radicals Oxidation-dependent fluorogenic dye, dihydroethidium (“DHE”, Molecular Probes) was used to evaluate intracellular production of superoxide radicals. DHE is cell permeable and, in the presence of superoxide, is oxidized to fluorescent ethidium which intercalates into DNA. The fluorescence of ethidium was measured using a FACscan (Becton-Dickinson, Rutherford, N.J.) flow cytometer, equipped with a 488-nm argon ion laser and supplied with the Cell Quest software. Mean fluorescence intensity from 10,000 cells were acquired using a 585-nm bandpass filter (FL-2 channel).

[2] = system: irradiated uroepithelial cells; assay: NO and peroxynitrite production in irradiated uroepithelial cells (microsensor); format: cell-based; details: AMT 10 μM, 4-amino-TEMPO 100 μM; 24 h after irradiation
Description: Further physiological studies were conducted to determine the effects of peptide-targeted AMT and 4-amino-TEMPO on NO and peroxynitrite production in irradiated uroepithelial cells. The cells were cultured in an 8-well slide chamber for 3 days and then microsensor measurements were taken 24 hours after irradiation.
In cells treated with high-dose conjugated 4-amin-TEMPO (100 μM), peroxynitrite production was decreased by approximately 4-fold.

[3] = system: mitochondria of 32D c13 hemopoietic cells; assay: Mass spectrometry of conjugates in isolated mitochondria; format: cell-based, mouse; details: 100 μM, 2 h; for permeation of the mitochondrial membrane (mass spectrometry): 37° C.; for Fmole/10 μM mitochondrial protein: mouse
Description: An unconjugated and conjugated NOS antagonist, (AMT, 100 μM) and an unconjugated and conjugated nitroxide derivative (4-amino-TEMPO, 100 μM) were incubated for two hours at 37° C. with 32D c13 hemopoietic cells.
Following incubation, the cells were lysed and the mitochondria isolated for a mass spectrometry analysis where compounds isolated from mitochondria were identified as Na+ adducts. […] Thus, the targeting peptides successfully direct a NOS antagonist and a nitroxide to the mitochondria.
Quantitative mass spectrometry studies were used to compare the effectiveness of several AMT peptide conjugates in permeating the mitochondrial membrane, specifically XJB-5-234, XJB-5-133, XJB-5-241, and XJB-5-127. The Fmole/10 μM mitochondrial protein ratio provides a relative quantification of conjugate concentration at the target site.

[4] = system: mouse embryonic cells; assay: EPR-based analysis of integration and reduction of nitroxide Gramicidin S-peptidyl conjugates in MECs; format: cell-based; details: 10 μM, MECs and mitochondria isolated from them
Description: Electron paramagnetic resonance (“EPR”) spectroscopy was used to monitor the cellular delivery of compounds 5a and 5b shown in FIG. 3 in mouse embryonic cells (“MEC”).
The following conditions were used during the EPR-based analysis of the integration and reduction of nitroxide Gramicidin S-peptidyl conjugates in MECs. The MECs at a concentration of 10 million MECs per mL were incubated with 10 μM of 4-AT and compound 5a, respectively. Recovered nitroxide radicals in whole cells, mitochondria, and cytosol fractions were resuspended in phosphate buffer saline (“PBS”) in the presence and absence, respectively, of 2 μM K3Fe(CN)6.

[5] = system: mouse embryonic cells; assay: ActD-induced apoptosis in MECs (PS externalization, caspase-3, DNA fragmentation); format: cell-based; set-up: protection against ActD-induced apoptosis: dose or concentration left out as unconfirmed; details: for DNA fragmentation / caspase-3 activation / number of annexin V-positive cells (PS externalization): 10 μM, ActD 100 ng/mL; for effect at concentrations in excess of 10 μM: PS externalization
Description: Cells that annexin V-positive and PI-negative were considered apoptotic.

[6] = comparison drugs; cited from earlier work
[7] = system: 32D cl 3 murine hematopoietic cells; assay: Gamma-irradiation dose survival curves of 32D cl 3 cells (XJB-5-125, Tempol); format: cell-based, mouse
Description: FIG. 16 illustrates the effect of GS conjugated nitroxide, XJB-5-125, on gamma-irradiation dose survival curves of 32D cl 3 murine hematopoietic cells.

CC1(C)CC(N)CC(C)(C)N1[O] [4-amino-TEMPO, reference compound]
intracellular superoxide generation [1]: no effect | NO induced peroxynitrite formation [2]: comparable amount of peroxynitrite | permeation of the mitochondrial membrane (mass spectrometry) [3]: only permeate the mitochondrial membrane with the assistance of the attached GS-derived targeting sequence | integration into cells and mitochondria (EPR signals of nitroxide radicals) [4]: did not effectively permeate cells or the mitochondria | protection against ActD-induced apoptosis ([5]; low concentrations): afforded no protection

CC(C)C[C@@H](/C=C/[C@H](Cc1ccccc1)C(=O)N1CCC[C@H]1C(=O)N[C@H](C(=O)N[C@@H](CCCNC(=O)OCc1ccccc1)C(=O)NC1CC(C)(C)N([O])C(C)(C)C1)C(C)C)NC(=O)OC(C)(C)C [Compound 5a]
intracellular superoxide generation [1]: completely inhibited | integration into cells and mitochondria (EPR signals of nitroxide radicals) [4]: triplet signals of nitroxide radicals were detected | DNA fragmentation [5]: prevented DNA fragmentation | caspase-3 activation [5]: prevented caspase-3 activation | number of annexin V-positive cells (PS externalization) [5]: reduced the number of annexin V-positive cells | effect at concentrations in excess of 10 μM [5]: either less protective or exhibited cytotoxicity

CC(C)C[C@H](NC(=O)OC(C)(C)C)C(=O)N[C@H](Cc1ccccc1)C(=O)N1CCC[C@H]1C(=O)N[C@H](C(=O)N[C@@H](CCCNC(=O)OCc1ccccc1)C(=O)NC1CC(C)(C)N([O])C(C)(C)C1)C(C)C [Compound 5b] (Boc-L[dF]PV[Orn](Cbz)-{NH(TEMPO-4-yl)})
intracellular superoxide generation [1]: completely inhibited | DNA fragmentation [5]: prevented DNA fragmentation | caspase-3 activation [5]: prevented caspase-3 activation | number of annexin V-positive cells (PS externalization) [5]: reduced the number of annexin V-positive cells | effect at concentrations in excess of 10 μM [5]: either less protective or exhibited cytotoxicity

COc1ccc2c(c1)c(CC(=O)O)c(C)n2C(=O)c1ccc(Cl)cc1 [Indomethecin]
log Ko/w [6]: 4.23

CC1(C)CC(O)CC(C)(C)N1[O] [TEMPOL, 4-hydroxy-2,2,6,6-tetramethylpiperidine-N-oxyl]
n (shoulder on the survival curve) [7]: 5.82 | Do ([7]; vs 0.797 Gy for 32D cl 3 cells alone): 1.209 Gy

CC(C)C[C@H](NC(=O)OC(C)(C)C)C(=O)N[C@H](Cc1ccccc1)C(=O)N1CCC[C@H]1C(=O)N[C@H](C(=O)N[C@@H](CCCNC(=O)OCc1ccccc1)C(=O)NC1=NCCC(C)S1)C(C)C (stereo partly drawn) [XJB-5-127, Boc-Leu-^DPhe-Pro-Val-Orn(Cbz)-AMT] (Boc-L[dF]PV[Orn](Cbz)-X1)
Fmole/10 μM mitochondrial protein [3]: 50.8 Fmole/10 μM mitochondrial protein

CC(C)C[C@@H](/C=C/[C@H](Cc1ccccc1)C(=O)N1CCC[C@H]1C(=O)N[C@H](C(=O)N[C@@H](CCCNC(=O)OCc1ccccc1)C(=O)NC1=NCCC(C)S1)C(C)C)NC(=O)OC(C)(C)C (stereo partly drawn) [XJB-5-133, Boc-Leu-ψ[(E)-CH═CH]-^DPhe-Pro-Val-Orn(Cbz)-AMT]
Fmole/10 μM mitochondrial protein [3]: 89.8 Fmole/10 μM mitochondrial protein

CC(C)C[C@@H](/C=C/[C@H](Cc1ccccc1)C(=O)NC1=NCCC(C)S1)NC(=O)OC(C)(C)C (stereo partly drawn) [XJB-5-234, Boc-Leu-ψ[(E)-CH═CH]-^DPhe-AMT]
Fmole/10 μM mitochondrial protein [3]: 1.45 Fmole/10 μM mitochondrial protein

C/C(=C\[C@H](Cc1ccccc1)C(=O)N1CCC[C@H]1C(=O)N[C@H](C(=O)N[C@@H](CCCNC(=O)OCc1ccccc1)C(=O)NC1=NCCC(C)S1)C(C)C)[C@H](CC(C)C)NC(=O)OC(C)(C)C (stereo partly drawn) [XJB-5-241, Boc-Leu-ψ[(E)-C(CH3)═CH]^DPhe-Pro-Val-Orn(Cbz)-AMT]
Fmole/10 μM mitochondrial protein [3]: 103.3 Fmole/10 μM mitochondrial protein

Clc1ccccc1C(c1ccccc1)(c1ccccc1)n1ccnc1 [clotrimazole]
log Ko/w [6]: 6.27

CC(=O)N1CCN(c2ccc(OCC3COC(Cn4ccnc4)(c4ccc(Cl)cc4Cl)O3)cc2)CC1 (stereo not drawn) [ketaconazole]
log Ko/w [6]: 4.34

CC1CCN=C(N)S1 (stereo not drawn) [unconjugated AMT, 2-amino-6-methyl-thiazine, reference compound]
NO induced peroxynitrite formation [2]: comparable amount of peroxynitrite | permeation of the mitochondrial membrane (mass spectrometry) [3]: do not enter the mitochondria membrane in substantial quantities
